Data reported in ChEMBL document CHEMBL3774310, “Discovery of antitumor anthra[2,3-b]furan-3-carboxamides: Optimization of synthesis and evaluation of antitumor properties” (Eur J Med Chem, 2016).

Legend:
P388 [1] = assay: Antitumor activity against mouse P388 cells transplanted in DBA2/BDF1 mouse assessed as mean life span at 30 mg/kg, ip dosed daily for 5 days (reference value: 9.6 to 9.7 day); type: functional
P388 [2] = assay: Antitumor activity against mouse P388 cells transplanted in DBA2/BDF1 mouse assessed as mean life span at 40 mg/kg, ip dosed daily for 5 days (reference value: 9.6 +/- 0.5 day); type: functional

Compound: CS(=O)(=O)O.Cc1oc2c(O)c3c(c(O)c2c1C(=O)N1CC[C@H](N)C1)C(=O)c1ccccc1C3=O
- Activity (P388 [1]): 20.8 days
- Activity (P388 [2]): 25.2 days
